Assay results taken from ChEMBL document CHEMBL5653615 (J Biol Chem, 2013).

Columns and labels:
[1] = target: Dual specificity protein kinase CLK2 (Homo sapiens) (UniProt P49760); assay: Inhibition of human CLK2 at 18.6 nM by HotSpot assay relative to control
[2] = target: Dual specificity tyrosine-phosphorylation-regulated kinase 1B (Homo sapiens) (UniProt Q9Y463); assay: Inhibition of human DYRK1B at 18.6 nM by HotSpot assay relative to control
[3] = target: Receptor-type tyrosine-protein kinase FLT3 (Homo sapiens) (UniProt P36888); assay: Inhibition of human FLT3 at 18.6 nM by HotSpot assay relative to control
[4] = target: Mitogen-activated protein kinase 10 (Homo sapiens) (UniProt P53779); assay: Inhibition of human JNK3 at 18.6 nM by HotSpot assay relative to control
[5] = target: Mitogen-activated protein kinase kinase kinase 11 (Homo sapiens) (UniProt Q16584); assay: Inhibition of human MAP3K11 at 18.6 nM by HotSpot assay relative to control
[6] = target: Ribosomal protein S6 kinase alpha-5 (Homo sapiens) (UniProt O75582); assay: Inhibition of human RPS6KA5 at 18.6 nM by HotSpot assay relative to control
[7] = target: T1, Serine/threonine-protein kinase Nek1 (Homo sapiens) (UniProt Q96PY6); assay: Inhibition of human NEK1 at 18.6 nM by HotSpot assay relative to control
T1 sequence (whole entry): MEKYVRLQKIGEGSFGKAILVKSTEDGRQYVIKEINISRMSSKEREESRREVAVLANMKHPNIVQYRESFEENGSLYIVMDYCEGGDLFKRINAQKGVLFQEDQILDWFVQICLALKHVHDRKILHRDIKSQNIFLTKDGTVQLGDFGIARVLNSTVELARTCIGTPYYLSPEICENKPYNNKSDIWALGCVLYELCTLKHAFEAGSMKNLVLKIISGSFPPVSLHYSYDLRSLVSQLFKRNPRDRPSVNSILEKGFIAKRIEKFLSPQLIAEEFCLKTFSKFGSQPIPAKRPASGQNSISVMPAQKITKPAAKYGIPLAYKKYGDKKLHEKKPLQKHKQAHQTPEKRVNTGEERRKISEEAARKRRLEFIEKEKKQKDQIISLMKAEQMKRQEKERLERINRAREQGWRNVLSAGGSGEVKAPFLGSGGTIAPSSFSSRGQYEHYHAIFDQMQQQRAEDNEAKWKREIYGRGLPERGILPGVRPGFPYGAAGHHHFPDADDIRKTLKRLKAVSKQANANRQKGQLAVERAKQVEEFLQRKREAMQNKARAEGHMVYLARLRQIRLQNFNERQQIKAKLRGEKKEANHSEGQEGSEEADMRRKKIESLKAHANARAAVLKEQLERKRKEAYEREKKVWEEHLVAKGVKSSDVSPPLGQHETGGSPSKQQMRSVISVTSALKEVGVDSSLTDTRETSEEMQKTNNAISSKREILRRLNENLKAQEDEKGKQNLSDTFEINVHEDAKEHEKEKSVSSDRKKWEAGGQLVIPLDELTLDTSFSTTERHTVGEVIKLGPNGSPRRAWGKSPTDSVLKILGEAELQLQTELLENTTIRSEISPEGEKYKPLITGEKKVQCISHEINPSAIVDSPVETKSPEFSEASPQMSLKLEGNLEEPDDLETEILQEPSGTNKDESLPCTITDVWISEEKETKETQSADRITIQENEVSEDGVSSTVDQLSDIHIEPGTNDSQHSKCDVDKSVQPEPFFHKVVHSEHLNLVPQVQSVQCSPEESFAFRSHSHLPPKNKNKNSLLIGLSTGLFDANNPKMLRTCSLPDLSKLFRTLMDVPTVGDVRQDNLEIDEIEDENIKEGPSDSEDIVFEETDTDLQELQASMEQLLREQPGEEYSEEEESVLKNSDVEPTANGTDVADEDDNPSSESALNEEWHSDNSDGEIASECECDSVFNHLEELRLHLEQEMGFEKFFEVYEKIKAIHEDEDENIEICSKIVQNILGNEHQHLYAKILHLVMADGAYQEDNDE

[8] = target: Tyrosine-protein kinase ABL2 (Homo sapiens) (UniProt P42684); assay: Inhibition of human ABL2 at 1.82 nM by HotSpot assay relative to control
[9] = target: Ephrin type-A receptor 4 (Homo sapiens) (UniProt P54764); assay: Inhibition of human EPHA4 at 1.82 nM by HotSpot assay relative to control
[10] = target: Mitogen-activated protein kinase 9 (Homo sapiens) (UniProt P45984); assay: Inhibition of human JNK2 at 1.82 nM by HotSpot assay relative to control
[11] = target: Serine/threonine-protein kinase PAK 3 (Homo sapiens) (UniProt O75914); assay: Inhibition of human PAK3 at 1.82 nM by HotSpot assay relative to control
[12] = target: T2, 3-phosphoinositide-dependent protein kinase 1 (Homo sapiens) (UniProt O15530); assay: Inhibition of human PDPK1 at 1.82 nM by HotSpot assay relative to control
T2 sequence (whole entry): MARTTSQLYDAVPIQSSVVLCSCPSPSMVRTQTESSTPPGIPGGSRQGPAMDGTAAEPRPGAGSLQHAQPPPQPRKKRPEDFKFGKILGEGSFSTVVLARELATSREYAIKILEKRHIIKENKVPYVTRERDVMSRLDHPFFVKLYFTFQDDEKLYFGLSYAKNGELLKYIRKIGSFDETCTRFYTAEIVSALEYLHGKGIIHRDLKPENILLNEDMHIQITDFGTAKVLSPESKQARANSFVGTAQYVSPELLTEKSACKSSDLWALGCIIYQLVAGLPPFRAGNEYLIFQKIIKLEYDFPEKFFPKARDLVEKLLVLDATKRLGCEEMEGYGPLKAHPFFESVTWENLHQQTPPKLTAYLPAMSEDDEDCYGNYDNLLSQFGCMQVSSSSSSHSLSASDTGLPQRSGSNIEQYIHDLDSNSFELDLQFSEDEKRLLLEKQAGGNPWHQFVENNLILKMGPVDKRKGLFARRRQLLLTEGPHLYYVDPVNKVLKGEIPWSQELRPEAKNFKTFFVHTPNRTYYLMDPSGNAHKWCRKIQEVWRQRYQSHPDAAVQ

[13] = target: High affinity nerve growth factor receptor (Homo sapiens) (UniProt P04629); assay: Inhibition of human TRKA at 1.82 nM by HotSpot assay relative to control
Chain of High affinity nerve growth factor receptor (Homo sapiens) (P04629 33-796 limits assumed): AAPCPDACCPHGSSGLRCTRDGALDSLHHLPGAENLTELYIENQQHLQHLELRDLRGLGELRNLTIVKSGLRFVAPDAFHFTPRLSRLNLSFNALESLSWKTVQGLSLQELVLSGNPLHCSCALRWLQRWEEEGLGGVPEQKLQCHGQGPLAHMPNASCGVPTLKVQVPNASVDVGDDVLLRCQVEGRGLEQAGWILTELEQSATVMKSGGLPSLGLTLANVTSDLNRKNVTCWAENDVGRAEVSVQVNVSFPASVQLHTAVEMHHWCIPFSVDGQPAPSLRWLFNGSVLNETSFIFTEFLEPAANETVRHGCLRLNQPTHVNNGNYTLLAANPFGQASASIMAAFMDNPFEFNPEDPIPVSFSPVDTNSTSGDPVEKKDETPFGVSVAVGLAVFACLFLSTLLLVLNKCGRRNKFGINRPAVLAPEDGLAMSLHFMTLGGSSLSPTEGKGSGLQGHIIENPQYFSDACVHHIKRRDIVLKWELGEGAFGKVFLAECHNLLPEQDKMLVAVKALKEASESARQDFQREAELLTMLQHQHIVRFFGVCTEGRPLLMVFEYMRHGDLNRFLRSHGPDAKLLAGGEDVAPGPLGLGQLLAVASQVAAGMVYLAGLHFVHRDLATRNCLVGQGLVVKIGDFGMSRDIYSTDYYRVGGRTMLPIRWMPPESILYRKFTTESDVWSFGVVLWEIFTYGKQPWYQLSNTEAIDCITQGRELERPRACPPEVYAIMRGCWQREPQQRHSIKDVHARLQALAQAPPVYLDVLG

Chain of Ribosomal protein S6 kinase alpha-5 (Homo sapiens) (O75582 whole entry, looked up): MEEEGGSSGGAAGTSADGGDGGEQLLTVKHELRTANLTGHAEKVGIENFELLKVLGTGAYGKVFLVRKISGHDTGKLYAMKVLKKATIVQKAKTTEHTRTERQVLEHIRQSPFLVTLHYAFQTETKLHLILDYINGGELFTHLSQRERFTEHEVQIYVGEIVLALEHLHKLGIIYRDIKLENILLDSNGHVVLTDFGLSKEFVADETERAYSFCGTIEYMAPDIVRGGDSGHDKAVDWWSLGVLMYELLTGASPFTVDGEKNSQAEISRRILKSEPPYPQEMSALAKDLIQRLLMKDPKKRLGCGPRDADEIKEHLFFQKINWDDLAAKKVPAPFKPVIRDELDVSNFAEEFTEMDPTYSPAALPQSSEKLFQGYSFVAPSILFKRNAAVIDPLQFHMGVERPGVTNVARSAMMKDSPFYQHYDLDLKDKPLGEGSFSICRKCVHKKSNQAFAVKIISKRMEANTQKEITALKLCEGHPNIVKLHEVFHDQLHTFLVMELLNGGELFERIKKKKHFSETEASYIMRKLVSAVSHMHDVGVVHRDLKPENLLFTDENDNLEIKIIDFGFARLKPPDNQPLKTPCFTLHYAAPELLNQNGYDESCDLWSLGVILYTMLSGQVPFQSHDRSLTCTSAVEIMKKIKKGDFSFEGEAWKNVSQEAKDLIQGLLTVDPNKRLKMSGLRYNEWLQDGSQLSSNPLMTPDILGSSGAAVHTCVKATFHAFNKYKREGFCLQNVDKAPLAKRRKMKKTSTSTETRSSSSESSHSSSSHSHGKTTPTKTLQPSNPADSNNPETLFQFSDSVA
Chain of Mitogen-activated protein kinase kinase kinase 11 (Homo sapiens) (Q16584 whole entry, looked up): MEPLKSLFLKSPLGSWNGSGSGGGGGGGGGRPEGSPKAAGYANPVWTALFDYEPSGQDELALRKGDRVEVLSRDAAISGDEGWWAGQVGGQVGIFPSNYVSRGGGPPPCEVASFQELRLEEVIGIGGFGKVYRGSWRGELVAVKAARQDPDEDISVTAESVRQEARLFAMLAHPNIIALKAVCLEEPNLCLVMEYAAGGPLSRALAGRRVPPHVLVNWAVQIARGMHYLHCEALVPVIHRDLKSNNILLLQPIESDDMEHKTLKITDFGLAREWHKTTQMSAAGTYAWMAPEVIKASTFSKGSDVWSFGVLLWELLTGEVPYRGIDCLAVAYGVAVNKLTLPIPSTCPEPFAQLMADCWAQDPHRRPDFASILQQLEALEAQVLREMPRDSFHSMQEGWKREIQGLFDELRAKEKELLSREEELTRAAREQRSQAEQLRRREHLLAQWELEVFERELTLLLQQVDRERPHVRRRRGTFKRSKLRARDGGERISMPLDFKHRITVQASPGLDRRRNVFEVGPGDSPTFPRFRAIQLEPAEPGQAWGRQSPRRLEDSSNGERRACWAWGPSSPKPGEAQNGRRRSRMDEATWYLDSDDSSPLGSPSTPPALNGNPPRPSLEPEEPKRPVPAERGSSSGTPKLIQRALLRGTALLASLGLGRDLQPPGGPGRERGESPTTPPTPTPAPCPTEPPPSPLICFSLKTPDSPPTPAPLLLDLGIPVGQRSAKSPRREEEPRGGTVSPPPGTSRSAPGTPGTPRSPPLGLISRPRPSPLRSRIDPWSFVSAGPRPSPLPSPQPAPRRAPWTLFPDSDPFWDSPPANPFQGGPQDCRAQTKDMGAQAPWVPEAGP
Chain of Ephrin type-A receptor 4 (Homo sapiens) (P54764 whole entry): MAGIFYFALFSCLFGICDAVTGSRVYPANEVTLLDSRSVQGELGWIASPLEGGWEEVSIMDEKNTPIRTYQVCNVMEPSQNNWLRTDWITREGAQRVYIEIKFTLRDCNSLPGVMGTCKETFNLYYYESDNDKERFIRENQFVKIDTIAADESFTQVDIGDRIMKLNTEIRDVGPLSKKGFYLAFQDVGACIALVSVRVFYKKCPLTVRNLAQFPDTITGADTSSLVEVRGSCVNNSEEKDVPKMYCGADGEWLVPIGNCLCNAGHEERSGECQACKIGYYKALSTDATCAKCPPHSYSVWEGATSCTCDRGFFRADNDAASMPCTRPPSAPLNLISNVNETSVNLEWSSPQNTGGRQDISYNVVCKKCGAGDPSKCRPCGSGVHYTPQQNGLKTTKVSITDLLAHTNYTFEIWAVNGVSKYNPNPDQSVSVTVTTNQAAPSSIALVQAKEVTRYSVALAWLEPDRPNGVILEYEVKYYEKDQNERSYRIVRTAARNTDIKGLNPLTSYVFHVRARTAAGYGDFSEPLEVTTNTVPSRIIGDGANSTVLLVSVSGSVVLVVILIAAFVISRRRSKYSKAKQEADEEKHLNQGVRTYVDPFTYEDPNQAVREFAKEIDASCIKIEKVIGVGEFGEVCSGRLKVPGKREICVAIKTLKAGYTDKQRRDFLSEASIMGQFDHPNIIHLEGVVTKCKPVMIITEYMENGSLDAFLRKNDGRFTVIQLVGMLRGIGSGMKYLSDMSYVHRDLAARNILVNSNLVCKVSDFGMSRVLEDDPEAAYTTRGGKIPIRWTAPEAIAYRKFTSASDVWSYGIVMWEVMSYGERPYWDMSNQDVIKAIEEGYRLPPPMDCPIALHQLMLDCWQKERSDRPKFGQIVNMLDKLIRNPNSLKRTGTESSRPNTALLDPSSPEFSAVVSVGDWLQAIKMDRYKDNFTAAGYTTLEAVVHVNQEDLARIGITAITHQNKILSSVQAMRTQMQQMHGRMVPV
Chain of Mitogen-activated protein kinase 10 (Homo sapiens) (P53779 whole entry): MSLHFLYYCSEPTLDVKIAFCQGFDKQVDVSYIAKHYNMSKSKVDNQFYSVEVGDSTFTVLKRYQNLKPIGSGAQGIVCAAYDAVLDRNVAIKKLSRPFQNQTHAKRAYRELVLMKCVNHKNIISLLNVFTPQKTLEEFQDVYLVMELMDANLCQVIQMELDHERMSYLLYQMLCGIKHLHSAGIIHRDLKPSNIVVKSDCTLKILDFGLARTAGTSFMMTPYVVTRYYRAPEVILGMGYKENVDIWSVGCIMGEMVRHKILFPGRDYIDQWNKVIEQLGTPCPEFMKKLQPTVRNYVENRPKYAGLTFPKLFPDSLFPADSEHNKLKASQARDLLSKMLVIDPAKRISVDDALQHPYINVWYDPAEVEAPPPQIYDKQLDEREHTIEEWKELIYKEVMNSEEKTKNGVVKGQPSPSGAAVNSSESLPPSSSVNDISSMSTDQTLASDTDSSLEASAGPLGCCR
Chain of Serine/threonine-protein kinase PAK 3 (Homo sapiens) (O75914 whole entry, looked up): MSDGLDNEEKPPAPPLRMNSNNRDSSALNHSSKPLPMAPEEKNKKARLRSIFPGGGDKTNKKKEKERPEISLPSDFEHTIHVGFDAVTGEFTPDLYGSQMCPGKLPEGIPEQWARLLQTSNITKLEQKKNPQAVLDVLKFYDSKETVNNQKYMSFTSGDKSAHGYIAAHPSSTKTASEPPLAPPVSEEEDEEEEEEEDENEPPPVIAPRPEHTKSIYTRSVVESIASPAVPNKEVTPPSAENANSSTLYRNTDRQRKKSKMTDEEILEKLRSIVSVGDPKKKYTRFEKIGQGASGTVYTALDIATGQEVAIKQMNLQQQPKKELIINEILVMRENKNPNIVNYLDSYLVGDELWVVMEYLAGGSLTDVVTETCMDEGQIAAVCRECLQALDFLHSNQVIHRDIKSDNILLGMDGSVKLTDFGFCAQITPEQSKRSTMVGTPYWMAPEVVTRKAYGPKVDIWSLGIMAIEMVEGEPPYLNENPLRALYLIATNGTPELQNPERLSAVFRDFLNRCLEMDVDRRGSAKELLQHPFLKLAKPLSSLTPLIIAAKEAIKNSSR
Chain of Dual specificity tyrosine-phosphorylation-regulated kinase 1B (Homo sapiens) (Q9Y463 whole entry, looked up): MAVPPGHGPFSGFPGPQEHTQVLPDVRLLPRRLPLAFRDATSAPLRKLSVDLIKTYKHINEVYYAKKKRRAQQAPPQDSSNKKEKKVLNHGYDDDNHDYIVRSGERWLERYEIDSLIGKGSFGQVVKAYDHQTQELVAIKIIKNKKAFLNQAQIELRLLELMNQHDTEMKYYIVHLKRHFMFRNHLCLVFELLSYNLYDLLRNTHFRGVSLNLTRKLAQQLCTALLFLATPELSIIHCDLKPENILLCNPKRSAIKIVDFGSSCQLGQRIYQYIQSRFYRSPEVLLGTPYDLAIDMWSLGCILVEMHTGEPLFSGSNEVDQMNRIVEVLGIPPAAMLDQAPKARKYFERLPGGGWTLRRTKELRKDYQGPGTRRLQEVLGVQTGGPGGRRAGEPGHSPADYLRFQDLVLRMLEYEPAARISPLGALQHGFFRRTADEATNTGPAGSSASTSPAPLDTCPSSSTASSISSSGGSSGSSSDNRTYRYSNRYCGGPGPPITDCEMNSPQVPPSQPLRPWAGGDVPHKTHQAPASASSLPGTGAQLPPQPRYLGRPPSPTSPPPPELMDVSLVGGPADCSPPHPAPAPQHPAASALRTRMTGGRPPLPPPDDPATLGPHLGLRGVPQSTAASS

SMILES | inhibition [1] | inhibition [2] | inhibition [3] | inhibition [4] | inhibition [5] | inhibition [6] | inhibition [7] | inhibition [8] | inhibition [9] | inhibition [10] | inhibition [11] | inhibition [12] | inhibition [13]
C[C@]1(O)C[C@@H](c2nc(-c3ccc4ccc(-c5ccccc5)nc4c3)c3c(N)nccn32)C1 | 4.4% | 1.39% | -4.3% | -3.24% | 0.31% | -5.75% | 5.45% |  |  |  |  |  | 
C[C@@]1(C(=O)Nc2ccc(F)nc2)CCCN1c1nc(Nc2cc(C3CC3)n[nH]2)c2cccn2n1 |  |  |  |  |  |  |  | -4.72% | -4.4% | -2.41% | -2.89% | -0.32% | 21.1%
